Measured values as given in patent publication US9458184B2, “Compositions of TLR7 and/or TLR8 agonists conjugated to lipids” (CAYLA, priority 2012, dated 2016).

Key:
human TLR7 = target: T1, human TLR7 (Homo sapiens, UniProt Q9NYK1); assay: HEK-Blue hTLR7 NF-κB/AP-1 SEAP reporter cell assay
T1 sequence (Q9NYK1 27-1049): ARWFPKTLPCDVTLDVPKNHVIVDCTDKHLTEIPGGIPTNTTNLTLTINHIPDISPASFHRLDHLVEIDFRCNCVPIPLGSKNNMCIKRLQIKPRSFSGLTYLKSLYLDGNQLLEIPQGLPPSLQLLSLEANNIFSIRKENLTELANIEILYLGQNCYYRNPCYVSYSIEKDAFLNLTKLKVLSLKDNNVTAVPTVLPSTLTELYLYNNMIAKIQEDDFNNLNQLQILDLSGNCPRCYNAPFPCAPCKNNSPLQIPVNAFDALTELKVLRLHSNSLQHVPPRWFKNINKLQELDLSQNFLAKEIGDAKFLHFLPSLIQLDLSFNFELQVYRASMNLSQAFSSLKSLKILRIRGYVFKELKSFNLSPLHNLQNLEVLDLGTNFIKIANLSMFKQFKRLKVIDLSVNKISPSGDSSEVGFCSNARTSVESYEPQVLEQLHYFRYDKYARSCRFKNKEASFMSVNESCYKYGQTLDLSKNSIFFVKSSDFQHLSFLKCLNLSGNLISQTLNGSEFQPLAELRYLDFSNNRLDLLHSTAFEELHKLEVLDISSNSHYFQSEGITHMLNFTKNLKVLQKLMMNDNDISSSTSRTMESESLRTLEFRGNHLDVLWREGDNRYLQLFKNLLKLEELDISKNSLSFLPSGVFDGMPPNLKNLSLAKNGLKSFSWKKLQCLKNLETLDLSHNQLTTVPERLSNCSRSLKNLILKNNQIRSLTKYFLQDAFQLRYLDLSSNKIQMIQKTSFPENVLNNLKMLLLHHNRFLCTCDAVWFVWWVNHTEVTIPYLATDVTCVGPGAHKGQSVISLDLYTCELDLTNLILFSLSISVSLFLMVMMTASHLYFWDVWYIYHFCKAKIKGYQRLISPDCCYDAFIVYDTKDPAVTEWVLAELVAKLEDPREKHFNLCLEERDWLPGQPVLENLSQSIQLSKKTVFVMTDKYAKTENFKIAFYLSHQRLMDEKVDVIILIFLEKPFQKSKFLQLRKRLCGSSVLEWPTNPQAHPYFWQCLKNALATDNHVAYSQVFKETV

B16-F1 tumor = assay: Mouse B16 tumor model, intratumoral injection; format: in vivo, C57BL/6 mice; conditions: by day 28, 3 intra-tumoral injections, 40 μg in 100 μl
plasmid DNA = format: physicochemical
human HEK293 cell line = assay: Cell transfection with SEAP plasmid, HEK293; format: cell-based; conditions: complexed with pVitro14 LGFP SEAP plasmid, HEK293, 48 hours
[1] = system: mouse B16 melanoma cell line; assay: Cell transfection with SEAP plasmid, B16; format: cell-based; conditions: complexed with pVitro14 LGFP SEAP plasmid, B16, 48 hours

| SMILES | TLR7 activity (NF-κB/AP-1-inducible SEAP reporter) (human TLR7) | survival of mice (B16-F1 tumor) | complex formation with pDNA (retardation of pDNA migration in gel) (plasmid DNA) | transfection (SEAP reporter gene expression) (human HEK293 cell line) | transfection (SEAP reporter gene expression) [1] |
| --- | --- | --- | --- | --- | --- |
| CCCCNc1nc(N)c2nc(O)n(Cc3ccc(C(=O)NCCCNCCCCNCCCNCCCP(=O)(OCCC(C)CCCC(C)CCCC(C)CCCC(C)C)OCCC(C)CCCC(C)CCCC(C)CCCC(C)C)cc3)c2n1 (centres unmarked) [CL346, bis(3,7,11,15-tetramethylhexadecyl) 1-(4-((6-amino-2-(butylamino)-8-hydroxy-9H-purin-9-yl)methyl)phenyl)-1-oxo-2,6,11,15-tetraazaoctadecan-18-ylphosphonate] | strong and specific TLR7 activity | – | – | – | – |
| CCCCNc1nc(N)c2nc(O)n(Cc3ccc(C(=O)NCC(=O)NCCCNCCCCNCCCNCCCP(=O)(OCCC(C)CCCC(C)CCCC(C)CCCC(C)C)OCCC(C)CCCC(C)CCCC(C)CCCC(C)C)cc3)c2n1 (centres unmarked) [CL347, bis(3,7,11,15-tetramethylhexadecyl) 1-(4-((6-amino-2-(butylamino)-8-hydroxy-9H-purin-9-yl)methyl)phenyl)-1,4-dioxo-2,5,9,14,18-pentaazahenicosan-21-ylphosphonate] | strong and specific TLR7 activity | no survival | – | – | – |
| CCCCNc1nc(N)c2nc(O)n(Cc3ccc(C(=O)NCC(=O)NCCCC[C@H](NCCCP(=O)(OCCC(C)CCCC(C)CCCC(C)CCCC(C)C)OCCC(C)CCCC(C)CCCC(C)CCCC(C)C)C(=O)NCCCNCCCCNCCCN)cc3)c2n1 (stereo in doubt) [CL493, (S)-bis(3,7,11,15-tetramethylhexadecyl) 19-amino-5-(4-(2-(4-((6-amino-2-(butylamino)-8-hydroxy-9H-purin-9-yl)methyl)benzamido)acetamido)butyl)-6-oxo-4,7,11,16-tetraazanonadecylphosphonate] | strong and specific TLR7 activity | – | – | – | – |
| CCCCCCCCCCCCCCCCOP(=O)(CCCN[C@@H](CCCCNC(=O)CNC(=O)c1ccc(Cn2c(O)nc3c(N)nc(NCCCC)nc32)cc1)C(=O)NCCCNCCCCNCCCN)OCCCCCCCCCCCCCCCC [CL481, (S)-dihexadecyl 19-amino-5-(4-(2-(4-((6-amino-2-(butylamino)-8-hydroxy-9H-purin-9-yl)methyl)benzamido)acetamido)butyl)-6-oxo-4,7,11,16-tetraazanonadecylphosphonate] | strong and specific TLR7 activity | – | inability to form complex with plasmid DNA | inability to transfect cells | inability to transfect cells |
